# Data published in patent US20120095025A1, “SUBSTITUTED [1,2,4]TRIAZOLO[1,5-a]PYRIMIDINES AND THEIR USE AS POTASSIUM CHANNEL MODULATORS” (NEUROSEARCH A/S, priority 2009, published 2012).
# Molecular target: T1, hSK1 channels (Homo sapiens, UniProt Q92952)
# T1 construct: expressed in transfected cells; host or cells: HEK293
# Assay: Whole-cell patch-clamp recording of SK channel current in HEK293 cells expressing hSK1
# Format: cell-based
# Conditions: concentration required for decreasing the baseline current to 50% of the initial current
# Description: The ionic current through small-conductance Ca^2+-activated K^+ channels (SK channels, subtype 1) is recorded using the whole-cell configuration of the patch-clamp technique in a classic patch-clamp set-up using HEK293 tissue culture cells expressing hSK1 channels as described in e.g. WO 2006/100212.
# For inhibitors a Kd value, defined as the concentration required for decreasing the baseline current to 50% of the initial current, was estimated.
row,SMILES,Kd [nM]
1,"CON=CNc1nc2nccc(COc3ccc(C(C)(C)C)cc3)n2n1 [Example 4, N-[7-(4-tert-Butylphenoxymethyl)-[1,2,4]triazolo[1,5-a]pyrimidin-2-yl]-N′-methoxy-formamidine]",> 3000
2,"CON=CNc1nc2nccc(C(C)Oc3ccc(C4CCCC4)cc3)n2n1 (centres unmarked) [Example 5, N-{7-[1-(4-cyclopentyl-phenoxy)ethyl]-[1,2,4]triazolo[1,5-a]pyrimidin-2-yl}-N′-methoxy-formamidine]",> 3000
3,"CON=CNc1nc2nccc(C(C)Oc3ccc(C(C)C)cc3)n2n1 (centres unmarked) [Example 6, N-{7-[1-(4-Isopropylphenoxy)ethyl]-[1,2,4]triazolo[1,5-a]pyrimidin-2-yl}-N′-methoxy-formamidine]",> 3000
4,"CON=CNc1nc2nccc(C(C)Oc3ccc(C(C)(C)C)cc3C)n2n1 (centres unmarked) [Example 7, N-{7-[1-(4-tert-Butyl-2-methylphenoxy)ethyl]-[1,2,4]triazolo[1,5-a]pyrimidin-2-yl}-N′-methoxy-formamidine]",< 100
5,"CCC(Oc1ccc(C(C)(C)C)cc1)c1ccnc2nc(NC=NOC)nn12 (centres unmarked) [Example 8, N-{7-[1-(4-tert-Butylphenoxy)propyl]-[1,2,4]triazolo[1,5-a]pyrimidin-2-yl}-N′-methoxy-formamidine]",< 100
6,"CON=CNc1nc2nccc(C(C)Oc3ccc(OC(C)(C)C)cc3)n2n1 (centres unmarked) [Example 9, N-{7-[1-(4-tert-Butoxy-phenoxy)ethyl]-[1,2,4]triazolo[1,5-a]pyrimidin-2-yl}-N′-methoxy-formamidine]",< 100

# Further lines, results first:
row,Kd [nM],SMILES
1,100 to 1000,"CC(Oc1ccc(C(C)(C)C)cc1)c1ccnc2nc(NC=NO)nn12 (centres unmarked) [Example 1, N-{7-[1-(4-tert-Butylphenoxy)ethyl]-[1,2,4]triazolo[1,5-a]pyrimidin-2-yl}-N′-hydroxy-formamidine]"
2,< 100,"CCCON=CNc1nc2nccc(C(C)Oc3ccc(C(C)(C)C)cc3)n2n1 (centres unmarked) [Example 2, N-{7-[1-(4-tert-Butylphenoxy)ethyl]-[1,2,4]triazolo[1,5-a]pyrimidin-2-yl}-N′-propyloxy-formamidine]"
3,> 3000,"CC(C)ON=CNc1nc2nccc(C(C)Oc3ccc(C(C)(C)C)cc3)n2n1 (centres unmarked) [Example 3, N-{7-[1-(4-tert-Butylphenoxy)ethyl]-[1,2,4]triazolo[1,5-a]pyrimidin-2-yl}-N′-isopropyloxy-formamidine]"
4,100 to 1000,"CON=CNc1nc2nccc(C(C)(C)Oc3ccc(C(C)(C)C)cc3)n2n1 [Example 10, N-{7-[1-(4-tert-Butylphenoxy)-1-methyl-ethyl]-[1,2,4]triazolo[1,5-a]pyrimidin-2-yl}-N′-methoxy-formamidine]"
5,< 100,"CON=CNc1nc2nccc(C(C)Oc3ccc(C(C)(C)C)cc3)n2n1 (centres unmarked) [Example A, N-{7-[1-(4-tert-Butylphenoxy)ethyl]-[1,2,4]triazolo[1,5-a]pyrimidin-2-yl}-N′-methoxy-formamidine]"
